Reference: patent US4824955A, “Selenium oxy chloride-pyridine or bipyridine complexes” (Nippon Kayaku Kabushiki Kaisha, priority 1985, dated 1989)
Where “and” joins values, the source holds several entries; their conditions need not be identical. Identical values can stand only once. Like-named read-outs stand apart in the source and are kept apart here.

Columns and labels:
Enrlich carcinoma = experiment: Antineoplastic activity against Enrlich carcinoma (life prolongation rate); assay type: in vivo, 5-week-old ICR mice (male); details: for response vs control in vivo at 16 mg/kg: Mus musculus, ip, 1440 h, read-out: Life prolongation rate (T/C %)
Description: Approximately 10^6 cells/0.2 ml of Enrlich carcinoma were inoculated into the abdominal cavity of each of the 5-week-old ICR mice (male) used for the test, and the test compounds were administered intraperitoneally to the mice of the treated group once a day for a period of 7 days, starting from the day after said inoculation. The mice of the control group was administered with a saline solution in the same way. Observation of the animals of both groups was continued for 60 days after the administration, and the life prolongation rate (T/C%, T/C×100) was determined from the average duration (days) of life of the mice of the treated group (T) and that of the mice of the control group (C).

[1] = intraperitoneal, once a day, 7 days, mice
in vivo = details: mouse, ip, LD50, intraperitoneal, once a day, 7 days, mice
[2] = test system: Salmonella typhimurium TA-98; experiment: Antimutagenic activity, Ames method, against mutagenic action of benzpyrene; assay type: cell-based; details: with B(α)P and S-9 mix
Description: The antimutagenic activity was examined according to the Ames method by using Salmonella typhimurium TA-98 as test bacterium and Benzo(α)pyrene (B(α)P) as (TA-98) mutagen.
To a solution of 5 μg of B(α)P and a proper amount of a compound of this invention in 0.1 ml of DMSO were added 0.5 ml of S-9 mix and 0.1 ml of a TA-98 suspension, and the mixture was subjected to preincubation at 37° C. for 20 minutes.
This preincubated mixture was further added with 2 ml of soft agar, and after sufficient mixing, the mixture was uniformly spread on a gluclose minimum agar medium plate and incubated at 37° C. for 48 hours. Thereafter, the number of the colonies produced by reverse mutation was counted.
The number of the colonies existing in the medium containing neither B(α)P nor the compound of this invention was given as background.
The antimutagenic activity was determined as a mutation inhibition rate from the following formula: [formula]

[3] = 2.0 mg/kg/day, intraperitoneal, once a day, 7 days
[4] = 4.0 mg/kg/day, intraperitoneal, once a day, 7 days
[5] = 8.0 mg/kg/day, intraperitoneal, once a day, 7 days

In the case of `Cn1cnc2ccccc21` [Compound 1-40, Selenium oxychloride-N-methylbenzimidazole (1:1) complex], the “Life prolongation rate (T/C %)” value (Enrlich carcinoma; [3]) is reported as 214%, the “Life prolongation rate (T/C %)” value (Enrlich carcinoma; [4]) is reported as 230% and the “Life prolongation rate (T/C %)” value (Enrlich carcinoma; [5]) is reported as 243%. For the same compound, the response vs control in vivo at 16 mg/kg (Enrlich carcinoma; intraperitoneal, (Note 2) administered for 2 days) was 123% and the LD50 [1] was 8-16 mg/kg/day × 7.
With `c1ccncc1` [Compound 2-1, Tetrabromoselenium-pyridine (1:2) complex] the “Life prolongation rate (T/C %)” value (Enrlich carcinoma; mouse, in vivo) was 185% and 171% and 222% and 146% and the LD50 [1] was greater than 16 mg/kg/day × 7.
In the case of `c1ccc(-c2ccccn2)nc1` [Compound 1-41, Selenium oxychloride-2,2'-dipyridyl (1:1) complex], the LD50 (in vivo) is reported as 8 to 16 mg/kg, the “Inhibition rate (mutation inhibition rate)” value (shortened to “Inhibition rate”) ([2]; 0.5 μg/plate) is reported as 22.6 and the Number of colonies ([2]; 0.5 μg/plate) is reported as 238. For the same compound, the “Inhibition rate” value ([2]; 1 μg/plate) was 24.2, the Number of colonies ([2]; 1 μg/plate) was 234 and the “Inhibition rate” value ([2]; 5 μg/plate) was 33.6. The Number of colonies ([2]; 5 μg/plate) was 209, the “Inhibition rate” value ([2]; 10 μg/plate) was 56.2 and the Number of colonies ([2]; 10 μg/plate) was 149. The “Inhibition rate” value ([2]; 50 μg/plate) was 67.5, the Number of colonies ([2]; 50 μg/plate) was 119 and the “Inhibition rate” value ([2]; 100 μg/plate) was 76.2. The Number of colonies ([2]; 100 μg/plate) was 96, the “Inhibition rate” value ([2]; 500 μg/plate) was 100 and the Number of colonies ([2]; 500 μg/plate) was 16. For the same compound, the “Life prolongation rate (T/C %)” value (Enrlich carcinoma; [3]) was 230%, the “Life prolongation rate (T/C %)” value (Enrlich carcinoma; [4]) was 237% and the “Life prolongation rate (T/C %)” value (Enrlich carcinoma; [5]) was 312%.
In the case of `c1ccc(-c2ccccn2)nc1` [Compound 2-13, Tetrachloroselenium-2,2'-dipyridinyl (1:2) complex], the “Life prolongation rate (T/C %)” value (Enrlich carcinoma; [3]) is reported as 152%, the “Life prolongation rate (T/C %)” value (Enrlich carcinoma; [4]) is reported as 180% and the “Life prolongation rate (T/C %)” value (Enrlich carcinoma; [5]) is reported as 185%. For the same compound, the response vs control in vivo at 16 mg/kg (Enrlich carcinoma; intraperitoneal, (Note 5) administered for 6 days) was 97% and the LD50 [1] was greater than 16 mg/kg/day × 7.
